Measurements published in article PMC11554305, “Functional identification of soluble uric acid as an endogenous inhibitor of CD38” (eLife, 2024).

Assays:
[1] = molecular target: uricase; design: method as in Fridovich, 1965; conditions: ref Fridovich, 1965; cited from earlier work
[2] = system: WT BMDMs; test: Intracellular NAD+ in primed WT BMDMs treated with NMN; assay type: cell-based, mouse; conditions: sUA 100, 200 and 500 μM; NMN 100 μM, 6 hr
Experimental: Bone marrow cells were isolated from 10- to 12-week-old WT or CD38 KO mice (both male and female) by washing the marrow cavity with sterile PBS. The collected bone marrow cells were filtered by 70 μm strainers and then centrifuged at 1000 rpm, 4°C for 5 min. The cell pellet was resuspended in 2 mL red blood cell (RBC) lysis buffer for 30 s, then 8 mL complete RPMI-1640 medium (10% FBS, 1% penicillin/streptomycin, and 50 μM 2-mercaptoethanol) was added to terminate the lysis. After 5 min centrifugation at 1000 rpm, 4°C, the cells were resuspended in fresh complete RPMI-1640 medium and maintained for 4 hr in an incubator. Adherent cells were discarded, whereas non-adherent cells were cultured in complete RPMI-1640 medium containing 20 ng/mL M-CSF. After 3-day differentiation, the medium was replaced with fresh complete RPMI-1640 medium containing 20 ng/mL M-CSF. On the 7th day, BMDMs were collected for subsequent experiments. BMDMs were primed with 100 ng/mL ultrapure LPS for 4 hr for canonical inflammasome assay. For metabolic assay of NMN, BMDMs were primed with 100 ng/mL ultrapure LPS for 8 hr to induce higher protein expression of CD38.
WT BMDMs were primed with 100 ng/mL ultrapure LPS for 8 hr. Then, the cells were washed twice with sterile PBS. Afterward, the cells were incubated in control or 100 μM NMN-supplemented RPMI-1640 medium in the presence of sUA or 78c. […]

[3] = molecular target: T1, CD38 (Homo sapiens, UniProt P28907); test: Hydrolase activity of THP-1 cells; assay type: biochemical; conditions: sUA 0–500 μM, Figure 1—figure supplement 1A
T1 construct: cells or tissues were directly homogenized in blank reaction buffer on ice; host or cells: THP-1
T1 sequence (P28907 1-300): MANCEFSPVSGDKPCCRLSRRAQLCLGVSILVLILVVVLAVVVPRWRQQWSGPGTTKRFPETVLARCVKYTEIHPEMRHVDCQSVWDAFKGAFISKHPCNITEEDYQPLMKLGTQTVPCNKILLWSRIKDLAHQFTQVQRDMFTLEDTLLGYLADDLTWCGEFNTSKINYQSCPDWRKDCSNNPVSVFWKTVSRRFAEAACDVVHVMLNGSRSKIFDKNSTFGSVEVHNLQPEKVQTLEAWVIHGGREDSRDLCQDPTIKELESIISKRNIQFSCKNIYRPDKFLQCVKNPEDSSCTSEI
Experimental: The hydrolase activity of CD38 was measured according to a previous report ([de Oliveira et al., 2018]) with minor modifications. CD38 hydrolase activity was measured using 50 μM ε-NAD^+ as a substrate in hydrolase reaction buffer (250 mM sucrose, 40 mM Tris-HCl, pH 7.4). Briefly, cells or tissues were directly homogenized in blank reaction buffer on ice, and recombinant hCD38 was diluted in blank reaction buffer for subsequent assays. The tissue homogenates were centrifuged to collect the supernatant for enzyme assays. The loading volume of enzyme was 4–30 μL, the total volume of the reaction system was 3 mL. To detect enzyme inhibition, except when specified, the ligands were directly dissolved in hydrolase reaction buffer before pH adjustment, after which, the pH was immediately adjusted to 7.4. All reaction buffers, with or without ligands, were freshly prepared before each assay. For measurement of hydrolase activity, 3 mL reaction buffer containing enzyme, ε-NAD^+, and ligands at indicated concentrations was maintained at 37°C with constant stirring.
The reaction buffer for hydrolase or cyclase assays was excited at 300 nm, and fluorescence emission was measured every second at 410 nm by Shimazu RF-6000 spectrofluorometer. Hydrolase or cyclase activity was calculated from the linear portion of the time course by fitting a linear function to the data points recorded within 5 min.

[4] = molecular target: T2, recombinant hCD38 (Homo sapiens, UniProt P28907); test: Metabolic assay of NMN (degradation by recombinant hCD38); assay type: biochemical; conditions: NMN 200 μM, hCD38 20 ng/mL, 6 hr
T2 construct: the commercial recombinant hCD38 without a transmembrane region was partially used in this study; purchased Sino Biological 10818-H08H
T2 sequence (P28907 43-300 limits assumed): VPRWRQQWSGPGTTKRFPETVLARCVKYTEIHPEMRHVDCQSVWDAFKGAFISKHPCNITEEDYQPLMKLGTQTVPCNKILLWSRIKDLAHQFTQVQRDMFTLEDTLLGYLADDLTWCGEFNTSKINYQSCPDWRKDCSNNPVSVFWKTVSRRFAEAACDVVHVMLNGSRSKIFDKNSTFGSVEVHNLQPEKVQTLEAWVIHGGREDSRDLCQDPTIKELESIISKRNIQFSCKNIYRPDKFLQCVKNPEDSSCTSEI
Experimental: To prepare the reaction buffer, sUA was directly dissolved in blank RPMI-1640 medium by addition of NaOH, and the pH was immediately adjusted by HCl. After pH adjustment, the medium containing sUA was filtered by 0.2 μm filter and diluted as indicated. The medium containing 20 ng/mL recombinant hCD38 was then placed in a cell incubator. The reaction was started with the addition of NMN (final concentration was 200 μM). After incubation for 6 hr, 20 μL medium was transferred into 180 μL 5% ice-cold PCA, then vortexed for 30 s and centrifuged at 15,000 rpm, 4°C for 10 min. The supernatant was stored at –80°C until further handling for NMN measurement (see LC-MS/MS analysis).
As mentioned above, samples (cells, tissues, blood, or reaction buffer) were treated with ice-cold PCA, after extraction and centrifugation, the collected supernatant was appropriately diluted in 5% ice-cold PCA when applicable, and then was vortexed for 30 s and centrifuged at 15,000 rpm, 4°C for 5 min. […] All the samples after handling were immediately analyzed in this study without freezing and thawing.
The LC-MS/MS system consisted of a triple quadrupole LCMS-8050 (Shimadzu) and an LC-30A system (Shimadzu). […] NAD^+ and NMN were measured independently in this study, as their peaks were hardly separated within a short time.

| SMILES | Ki for uricase [1] | Intracellular NAD+ in primed WT BMDMs treated with NMN [2] | Ki [3] [µM] | NMN degradation by recombinant hCD38 [4] |
| --- | --- | --- | --- | --- |
| O=C(O)c1nc(=O)[nH]c(=O)[nH]1 [OA, oxonic acid, reference compound] | nanomolar range |  |  |  |
| O=c1[nH]c(=O)c2[nH]c(=O)[nH]c2[nH]1 [sUA, uric acid] |  | failed to boost intracellular NAD^+ | 75.5 | directly inhibited NMN degradation |
